{"source": "a melting point compilation (Tetko et al.; mined from patent text by program, amines drawn as free bases though some values may be those of a salt)"}
{"units": {"melting point": "°C"}}
{"smiles": "C=C(c1ccccc1)[C@@H](C)[C@H](NC(=O)C(F)(F)F)C(=O)O", "melting point": 108}
{"smiles": "NC(=NO)c1ccc(Cn2ccc(OCc3ccccc3)c(Br)c2=O)cc1", "melting point": "210 to 212"}
{"smiles": "CC(=O)OC1CC(=O)N1", "note": "(stereo not drawn)", "melting point": "152 to 154"}
{"smiles": "COc1ccc(C(=O)Oc2ccccc2)c(O)c1", "melting point": "61.5 to 62.5"}
{"smiles": "Cc1cc(-c2cc(C(F)(F)F)n3ncc(C(=O)O)c3n2)ccc1C(F)(F)F", "melting point": 250}
{"smiles": "COc1cc2ncnc(N3CCC(CI)CC3)c2cc1OC", "melting point": "180 to 182"}
{"smiles": "COc1ccc(S(=O)(=O)N(Cc2cccnc2)c2c(C(=O)O)cc(C)cc2-c2ccco2)cc1", "melting point": 82}
{"smiles": "CCC(C)c1ccc2c(c1)C1(O)C(=O)c3ccccc3C1(O)O2", "note": "(stereo not drawn)", "melting point": "134 to 136"}
{"smiles": "COc1cc(CCl)cc(OC)c1OCc1nc(-c2ccccc2)oc1C", "melting point": "118 to 119"}
{"smiles": "O=C(NCCO)c1cccc(-c2ccnc3cc(Cc4cccc(C(F)(F)F)c4)oc23)c1", "melting point": "158 to 159"}
{"smiles": "COCCC1(C(=O)N[C@@H](Cc2ccc(NC(=O)c3cc(C#N)ccc3Cl)cc2)C(=O)OC)CCCC1", "melting point": "172 to 175"}
{"smiles": "Cc1c(-c2ccc(OCC3CC3)cc2)nc2n(Cc3c(F)cccc3F)cc(Br)c(=O)n12", "melting point": "230 to 231"}
{"smiles": "O=C(O)C(=O)CC(=O)c1cn(Cc2ccc(F)cc2)c2ccccc12", "melting point": "161 to 162"}
{"smiles": "O=C(C=Cc1ccc(-c2ccc(Cl)cc2)cc1)NC(Cc1ccc(OCc2ccccc2)cc1)C(=O)O", "note": "(stereo not drawn)", "melting point": "253 to 254"}
{"smiles": "CCCOc1ccccc1-c1nc(O)cc(Cl)n1", "melting point": 116}
{"smiles": "CC1(C)OC(=O)Nc2ccc(-c3cccc([N+](=O)[O-])c3)cc21", "melting point": "244 to 245"}
{"smiles": "COC(=O)C(CC(=O)c1ccc(Oc2ccccc2)cc1)SC(C)=O", "note": "(stereo not drawn)", "melting point": "59 to 61"}
{"smiles": "CC(C)(C)NC(=O)N(C(=O)C1CCC2C3CC=C4C=C(C(=O)O)CCC4(C)C3CCC12C)C(C)(C)C", "note": "(stereo not drawn)", "melting point": "118 to 120"}
{"smiles": "CCN1C(=O)C(=O)N(c2ccc(F)cc2)C1=S", "melting point": "172 to 174"}
{"smiles": "COc1ccc(COc2cc(C)nc3c(O)cccc23)cc1OC", "melting point": "129 to 131"}
{"smiles": "N#CCc1cccnc1C#N", "melting point": "48 to 51"}
{"smiles": "Nc1c(NC2CCc3ccccc32)[nH]c(=O)[nH]c1=O", "note": "(stereo not drawn)", "melting point": "> 150"}
{"smiles": "CCOC(=O)/C=C/c1cc2c(Nc3ccc4[nH]ccc4c3)c(C#N)cnc2s1", "melting point": 226}
{"smiles": "COC(=O)CC1CCN(CCC=C2c3ccccc3OCOc3ccccc32)C1", "note": "(stereo not drawn)", "melting point": "70 to 90"}
{"smiles": "O=C(O)c1ccc(-c2cnc(-c3ccc(Cl)cc3)o2)cc1", "melting point": "268 to 270"}
{"smiles": "CCOc1nc(NCc2ccco2)nc(Nc2cccc(CN3CCOCC3)c2)n1", "melting point": "69 to 71"}
{"smiles": "COC(=O)[C@@H]1C[C@H](Oc2cc(-c3nc(C(C)C)cs3)nc3c(C)c(OC)ccc23)C[C@H]1C(=O)O", "melting point": 135}
{"smiles": "CCn1c(C)c(C2(N(c3ccccc3)c3ccccc3)OCc3cccnc32)c2ccccc21", "note": "(stereo not drawn)", "melting point": "132 to 136"}
{"smiles": "C#Cc1cc2c(cc1C=O)C(C)(C)CCC2(C)C", "melting point": "94 to 94.6"}
{"smiles": "Cc1nc2cc3[nH]c(-c4ccncc4)nc3cc2s1", "melting point": "> 300"}
{"smiles": "CCOC(=O)/C=C/c1cn(-c2ccc(Cl)cn2)nc1C(C)C", "melting point": "105 to 106"}
{"smiles": "CCOC(=O)N1N=C(c2ccc(N)cc2)c2cc(Cl)ccc2CC1C", "note": "(stereo not drawn)", "melting point": "95 to 98"}
{"smiles": "CC(C)Oc1ccnc2[nH]ccc12", "melting point": "182 to 184"}
{"smiles": "CCCC(=O)Nc1n[nH]c2cc(-c3ccccc3)ccc12", "melting point": 220}
{"smiles": "CCOC(=O)c1ccc(NC(=O)C=C(C)c2ccc(Cl)c(Cl)c2)cc1", "melting point": "149 to 150"}
{"smiles": "CC(C)(C)OC(=O)N1C[C@H](OS(C)(=O)=O)C[C@H]1CO", "melting point": "95 to 96"}
{"smiles": "c1ccc2c(c1)CCN(Cc1n[nH]c3ccccc13)C2", "melting point": "151 to 152"}
{"smiles": "CC[C@H](COC)n1cc(Br)nc(N2CCc3cc(Br)cc(Cl)c32)c1=O", "melting point": 118}
{"smiles": "Cc1cc(-c2c(F)cc3c(=O)c(C(=O)O)cn4c3c2S(=O)CC4C)cc(C)n1", "note": "(stereo not drawn)", "melting point": "294 to 295"}
{"smiles": "O=Cc1ccc(Sc2nc3ncccc3[nH]2)o1", "melting point": 188}
{"smiles": "OC1CSC(Oc2ccc(-c3ccc(N4CCCCC4)cc3)nc2)C(O)C1O", "note": "(stereo not drawn)", "melting point": 221}
{"smiles": "O=C(NOCc1ccccc1)c1ccc(CNC(=O)c2cn3c4c(cccc24)CCC3)cc1", "melting point": "234 to 235"}
{"smiles": "COc1ccc(-c2ocnc2-c2cc(OC)c(Cl)c(OC)c2)cc1N", "melting point": "146 to 148"}
{"smiles": "COC(=O)c1ccc2c(c1)C(C#N)=CCC2", "melting point": "73 to 75"}
{"smiles": "CCOC(=O)c1c2n(c3cc(N4CCN(C)CC4)c(F)cc3c1=O)CCCC2", "melting point": "163 to 165"}
{"smiles": "Fc1ccc2c(C3CCC4(CC3)OCCO4)c[nH]c2c1", "melting point": "158 to 159"}
{"smiles": "CCOC(=O)c1cc2cc(OC(C)=O)ccc2n1C", "melting point": "87 to 89"}
{"smiles": "OC(CCCCCOCc1ccccc1)c1cccc(OCc2ccc3ccccc3n2)c1", "note": "(stereo not drawn)", "melting point": "86 to 89"}
{"smiles": "Cn1c(CCC(=O)O)ccc1C(=O)c1ccc(Cl)cc1", "melting point": "188 to 191"}
{"smiles": "CCOC(=O)c1cc(O[C@@H]2c3c(C)ccc(C)c3C[C@H]2O)c2nc(C)n(C)c2c1", "note": "(relative stereo)", "melting point": 184}
{"smiles": "CCOC(=O)c1snc(CO)c1N", "melting point": "82 to 85"}
{"smiles": "COc1ccc(Sc2ccc(NC(=N)N)cc2)cc1", "melting point": "140 to 141"}
{"smiles": "Cc1c(CC(=O)O)c2cc(O)ccc2n1C(=O)c1cccc(Cl)c1", "melting point": "158 to 160"}
{"smiles": "CCC(CC)n1nc(C)c2c(O)nc(C)nc21", "melting point": "202 to 203"}
{"smiles": "Cc1cc(C)cc(OCCCC(=O)O)c1", "melting point": "66 to 68.5"}
{"smiles": "Cc1ncnn1-c1ccc([N+](=O)[O-])cc1F", "melting point": "56 to 58"}
{"smiles": "CC(=O)c1cccc(-c2ccc3c(c2)C(C)(C)OC(=O)N3)c1", "melting point": "178 to 179"}
{"smiles": "CCOC(=O)CCC(=O)c1cnc2c(OC)cccc2c1NCc1ccccc1C", "melting point": "152 to 155"}
{"smiles": "O=c1c2ccc3[nH]cc(CCNS(=O)(=O)c4ccccc4)c3c2ccn1Cc1ccccc1", "melting point": "205 to 206"}
{"smiles": "CCOC(=O)c1c(C(=O)O)c2c(OCc3ccccc3)ccc3c(CC)c(-c4ccc(OCc5ccccc5)cc4)c1n32", "melting point": "171 to 173"}
{"smiles": "CCOC(=O)c1ccc(-c2cccc(CNC=O)n2)cc1", "melting point": 120}
{"smiles": "O=C(NCc1ccccn1)c1nc(-c2ccccc2)c(-c2ccc(=O)n(Cc3ccccc3)n2)s1", "melting point": "172 to 174"}
{"smiles": "COc1ccc(C(=O)Nc2c(C)c(C)c3c(c2C)C(c2ccc(F)cc2)C(C)(C)O3)cc1", "note": "(stereo not drawn)", "melting point": "191 to 194"}
{"smiles": "O=C(O)[C@H](Cc1ccc(C(F)(F)F)cc1)[C@@H](O)c1ccc(Oc2ccccc2)cc1", "note": "(racemic)", "melting point": "128 to 129"}
{"smiles": "COc1cccc2c1C(=O)NS2(=O)=O", "melting point": 224}
{"smiles": "Nc1c(N=O)c(=O)n(CC2CCC2)c(=O)n1CC1CCC1", "melting point": "251 to 252"}
{"smiles": "CC[C@H](CO)Nc1nc(Nc2ccccn2)c2ncn(C(C)C)c2n1", "melting point": "30 to 35"}
{"smiles": "CC(=O)N[C@@H](CC(=O)c1ccc2oc3ccccc3c2c1)C(=O)O", "melting point": "166 to 170"}
{"smiles": "Cc1cc(=O)c2c(o1)CCOC2", "melting point": "107 to 110"}
{"smiles": "COc1cn(-c2ccc(-c3ccccn3)cc2F)nc(-c2ccnn2-c2ccccc2)c1=O", "melting point": "206 to 208"}
{"smiles": "CCS(=O)(=O)NC(=O)c1cccc(N)c1", "melting point": "129 to 132"}
{"smiles": "CCNc1cc(-c2c(-c3cccc(C)c3)nc3cccnn23)ccn1", "melting point": "151 to 153"}
{"smiles": "CNC(=O)[C@H](Cc1ccc(OC)cc1)NC(=O)[C@@H](N)CC(C)C", "melting point": "128 to 132"}
{"smiles": "Cc1c(C)c2c(c(C)c1NC(=O)CC(C)(C)C)C(c1ccc(CCCO)cc1)CO2", "note": "(stereo not drawn)", "melting point": "119 to 120"}
{"smiles": "CCCCCc1c(C(C)C)cc(C(C)C)c(C(C)=O)c1-c1ccc(F)cc1", "melting point": "123 to 124"}
{"smiles": "CN1C(=O)CN(c2cccc(C(F)(F)F)c2)NC1=O", "melting point": "163 to 165"}
{"smiles": "CCCCCCCCCCCCCCC(O)CO", "note": "(stereo not drawn)", "melting point": "76 to 77"}
{"smiles": "Cc1ccc(S(=O)(=O)OCC(COC(=O)c2ccccc2)OS(=O)(=O)c2ccc(C)cc2)cc1", "note": "(single isomer, unassigned; (-))", "melting point": "105 to 106"}
{"smiles": "O=C(CCC1CCN(Cc2ccccc2)CC1)c1ccc(N2CCCC2)cc1", "melting point": "144 to 145"}
{"smiles": "COC(=O)C(NS(=O)(=O)c1ccc(-c2ccc(NC(=O)c3oc4cccc(C5COC(C)(C)O5)c4c3C)cc2)cc1)C(C)C", "note": "(stereo not drawn)", "melting point": "192 to 194"}
{"smiles": "CC(C)(C)C(=O)c1sc(N)nc1-c1ccc(P(=O)(O)O)o1", "melting point": "> 220"}
{"smiles": "CCOc1cc2ncc(C#N)c(Nc3ccc(F)cc3)c2cc1OCC", "melting point": "177 to 181"}
{"smiles": "COc1cccc(CNC(=O)c2cc3c(=O)n(CCOc4ccc(Cl)cc4)c(=O)n(C)c3s2)c1", "melting point": "109 to 112"}
{"smiles": "COc1ccc2[nH]nc(N3CCN(C)CC3)c2c1", "melting point": "158 to 160"}
{"smiles": "CN(Cc1ccc(Cl)c(Cl)c1)C(=O)C1=C(O)C(=O)N(C2CC2)C1", "melting point": "163 to 164"}
{"smiles": "O=C(Cl)C=C(c1ccccc1)c1ccc([N+](=O)[O-])cc1", "melting point": "117 to 120"}
{"smiles": "OCc1ccc(O)c(CO)c1CNCCCCCCOCCCCCc1ccco1", "melting point": "59 to 60"}
{"smiles": "O=C(Nc1c([N+](=O)[O-])cnn1-c1c(Cl)cc(C(F)(F)F)cc1Cl)C1CCCO1", "note": "(stereo not drawn)", "melting point": "169 to 172"}
{"smiles": "Cn1c(=O)c(C(=O)NC2CCCCC2)c(Cl)c2cc(O)ccc21", "melting point": 186}
{"smiles": "Cc1ccc(S(=O)(=O)n2ccc3c(-c4c(-c5ccc(F)cc5)nc5ccc(Cl)nn45)ccnc32)cc1", "melting point": "244 to 246"}
{"smiles": "CCOP(=O)(OCC)C(OS(=O)(=O)c1ccc(C)cc1)c1cccc([N+](=O)[O-])c1", "note": "(stereo not drawn)", "melting point": "90 to 92"}
{"smiles": "CC(C)C(NS(=O)(=O)c1ccc(Br)cc1)C(=O)OC(C)(C)C", "note": "(stereo not drawn)", "melting point": "108 to 110"}
{"smiles": "O=C(O)c1cccc(-c2ccc3c(c2)C(c2cc(Cl)ccc2Cl)CC3)c1", "note": "(stereo not drawn)", "melting point": "229 to 230"}
{"smiles": "COCCNC(=O)C1CCC(Nc2ncc3ncnc(Nc4ccc(F)c(Cl)c4)c3n2)CC1", "note": "(stereo not drawn)", "melting point": "243 to 246"}
{"smiles": "O=C(c1ccc(Cl)c(Cl)c1)N1CCc2cc(S(=O)(=O)N3CCN(c4cccc(Cl)c4)CC3)ccc21", "melting point": "174 to 175"}
{"smiles": "CCCC(=O)N(Cc1ccc(-c2ccccc2C#N)cc1)c1nn(C)cc1C(=O)OCC", "melting point": "118 to 119"}
{"smiles": "COc1ccccc1NC(=O)Nc1nc(N2CCCCC2)nc(N(CCC(=O)O)Cc2cccc(C)c2)n1", "melting point": "91 to 92"}
{"smiles": "CC(=O)Oc1ccc(S(=O)(=O)ON=C(C#N)c2cccs2)cc1", "melting point": "114 to 115"}
